The values below come from US11034659B2, “Pyrimidine derivative” (Daiichi Sankyo Company, Limited, priority 2016, dated 2021).

Molecules are shown by their SMILES. Counter-ions that a name gives are not always drawn.

The target in test [1] is T1, GPR39 (Homo sapiens, UniProt O43194).
T1 construct: endogenous in cells; host or cells: CuFi-1 cells
T1 sequence (O43194 1-453): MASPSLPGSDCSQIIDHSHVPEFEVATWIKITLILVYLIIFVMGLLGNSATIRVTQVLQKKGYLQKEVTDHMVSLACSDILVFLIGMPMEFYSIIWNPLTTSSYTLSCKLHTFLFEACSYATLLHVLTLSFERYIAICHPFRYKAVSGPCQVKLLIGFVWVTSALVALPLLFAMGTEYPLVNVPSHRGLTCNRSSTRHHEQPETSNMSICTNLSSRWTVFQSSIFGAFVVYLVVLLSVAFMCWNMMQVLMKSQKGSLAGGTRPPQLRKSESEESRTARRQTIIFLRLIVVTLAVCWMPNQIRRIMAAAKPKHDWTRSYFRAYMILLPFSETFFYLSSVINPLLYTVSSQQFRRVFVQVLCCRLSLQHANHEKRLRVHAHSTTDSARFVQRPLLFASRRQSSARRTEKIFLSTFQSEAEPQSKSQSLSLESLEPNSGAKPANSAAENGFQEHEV
Briefly: Effects of GPR39 knockdown (siRNA) on chloride secretion in CuFi-1 cells. It counts as cell-based. The text has this:
FIG. 2 is a graph showing effects on the chloride secretory activity of each compound in CuFi-1 cells through siRNA treatment. The vertical axis is expressed as an increase in the rate of the average value of fluorescence values at five points between 110 and 120 seconds, relative to the average value of fluorescence values at 17 points between 1 and 34 seconds within the measurement time of 120 seconds. The graph is shown with the mean value (N=8) and the standard deviation.
In order to confirm that chloride ion secretion by the test compound observed in Test. Example 1 was induced via GPR39, GPR39 knockdown was conducted. CuFi-1 cells cultured in Pneumacult-EX (STEMCELL Technologies Inc.) were plated on a 96 well plate in 3×10^4 cells/100 μL/well. Then, human GPR39 siRNA (MISSION siRNA SASI_Hs02_00332000, SASI_Hs02_00332001, Sigma-Aldrich Co. LLC) or control siRNA (Ambion Silencer Select, Thermo Fisher Scientific Inc.) was added in 1 pmol/10 μL/well using Lipofectamine RNAiMAX (Thermo Fisher Scientific Inc.), and the cells were incubated for two nights. In order for the final concentration to be 5 mM, 10 μL/well of N-(ethoxycarbonylmethyl)-6-methoxyquinolinium bromide (MQAE) diluted with culture medium was added. After the addition of MQAE, the cells were incubated for one night so that the indicator was passively loaded. Hereafter, washing and measurement of the secretory capacity for chloride ions were conducted in the same way as Test Example 1. In addition, analysis on gene expression of GPR39 was performed using RNA extracted from wells to which the same method was carried out. Total RNA was extracted from cells using RNAiso Plus (Takara Bio Inc.), and purified using RNeasy Micro Kit (Qiagen). Then, cDNA was synthesized using High Capacity cDNA Reverse Transcription Kit (Thermo Fisher Scientific Inc.), and quantitative PCR was conducted using TaqMan Gene Expression Assays (human GPR39: Hs00230762_m1, human GAPDH: Hs02758991_g1, Thermo Fisher Scientific Inc.) and THUNDERBIRD Probe qPCR Mix (TOYOBO CO., LTD.). Through the calibration curve method, a relative expression level of GPR39 compensated with GAPDH was calculated.

The subject of test [2] is CuFi-1 cells. Kind of test: Secretory activity for chloride ions (MQAE fluorescence) in CuFi-1 cells. It counts as cell-based. To be noted: zinc final concentration 10 μM. The method, then:
Measurement of the secretory activity for chloride ions was performed in accordance with a previous report (West and Molloy, 1996). CuFi-1 cells were plated on a 96 well plate in 3×10^4 cells/well and incubated for two nights. After removing the culture medium, 100 μL/well of N-(ethoxycarbonylmethyl)-6-methoxyquinolinium bromide (MQAE) (diluted with culture medium and the concentration adjusted to 5 mM) was added. After the addition of MQAE, the cells were incubated for one night so that the indicator was passively loaded. After the loading, the cells were washed two times with Assay buffer, and 100 μL/well of Assay buffer was added. The secretory capacity for chloride ions was measured using FlexStation 1 (fluorescence wavelength of Ex: 355 nm/Em: 460 nm). In order to measure the basic value, nothing was added for 34 seconds immediately after the start of the measurement. Then, at this point, 100 μL/well of the test compound and zinc (final concentration: 10 μM) diluted with Assay buffer, which is free of chloride ions, was added, and the measurement was continued for 86 seconds (total measurement time: 120 seconds). The secretory capacity for chloride ions was calculated by dividing the average of RFU values in 10 seconds between 110 seconds and 120 seconds after the start of the measurement with the average between 0 second and 34 seconds (the basic value). The secretory activity for chloride ions of the test compound (EC50 value) was calculated by obtaining the secretory capacity for chloride ions at each concentration of the serially diluted test compound, and determining a concentration of the test compound that provides a secretory capacity of 50% from two secretory capacities and concentrations sandwiching 50% of the maximum response of each compound.

The mark [3] stands for this setting: Homo sapiens, CuFi-1, CuFi-1 cells.

Regarding `O=c1ccn([C@@H]2O[C@H](COP(=O)(O)OP(=O)(O)OP(=O)(O)O)[C@@H](O)[C@H]2O)c(=O)[nH]1` [UTP, reference compound], the “chloride ion secretion versus control siRNA” value in test [1] (GPR39 knockdown with siGPR39-1) turned out to be 111%; in test [1] (GPR39 knockdown with siGPR39-2), 89%.
What is called EC50 is the concentration needed to bring the measured effect to its halfway point. Turning to `CCOc1nc(C(=O)O)nc(C)c1Cc1ccc(Cl)cc1F` [Example 56], the EC50 in test [2] (setting [3]) was 16 nM.
Still for that read-out and setting: to `COc1nc(C(=O)O)nc(C)c1Cc1cccc(Cl)c1Cl` [Example 66] belongs 17.4 nM.
Consider `CCNc1nc(C(=O)O)nc(C)c1Sc1ccccc1Cl` [Example 22, 5-((2-Chlorophenyl)thio)-4-(ethylamino)-6-methylpyrimidine-2-carboxylic acid hydrochloride], for which the EC50 in test [2] (CuFi-1 cells, hydrochloride) stood at 7.1 nM.
In test [2] (setting [3]), `Cc1nc(C(=O)O)nc(NCC(=O)O)c1Cc1ccc(Cl)cc1Cl` [Example 8, 4-((Carboxymethyl)amino)-5-(2,4-dichlorobenzyl)-6-methylpyrimidine-2-carboxylic acid hydrochloride] had an EC50 of 50.6 nM.
The same measure, in the same setting: to `CNc1nc(-c2nnn[nH]2)nc(C)c1Sc1ccc(Cl)cc1Cl` [Example 106] belongs 2.9 nM.
On the same count and under the same terms, to `CCOc1nc(C(=O)O)nc(CC)c1Cc1cccc(Cl)c1Cl` [Example 48, 5-(2,3-Dichlorobenzyl)-4-ethoxy-6-ethylpyrimidine-2-carboxylic acid] belongs 9.4 nM; to `COc1nc(C(=O)O)nc(C(C)C)c1Cc1ccccc1Cl` [Example 70], 59.9 nM.
The molecule `COc1nc(C(=O)O)nc(C)c1Oc1ccc(Cl)cc1Cl` [Example 34] had an EC50 in test [2] (setting [3]) of 80.1 nM.
Consider `CCNc1nc(C(=O)O)nc(C)c1Sc1ccccc1C(F)(F)F` [Example 24], for which, in test [2] (setting [3]), the EC50 was 12.9 nM. This EC50 lies about 6.2-fold lower than the previous one.
The same measure, in the same setting: to `CCNc1nc(C(=O)O)nc(C)c1Cc1ccc(Cl)cc1Cl` [Example 1, 5-(2,4-Dichlorobenzyl)-4-(ethylamino)-6-methylpyrimidine-2-carboxylic acid hydrochloride] belongs 9.4 nM.
Still for that read-out and setting: to `Cc1nc(C(=O)O)nc(OCc2ccc(F)cc2F)c1Cc1ccccc1Cl` [Example 100] belongs 11.1 nM; to `CCOc1nc(C(=O)O)nc(C)c1Oc1ccc(Cl)cc1Cl` [Example 35], 29.3 nM.
Regarding `CCOc1nc(C(=O)O)nc(CC)c1Cc1cccc(F)c1Cl` [Example 61], in test [2] (setting [3]), the midpoint of the response, the EC50, lay at 11.4 nM.
Turning to `CCOc1nc(C(=O)O)nc(CC)c1Cc1ccc(Cl)cc1F` [Example 51], in test [2] (setting [3]), the EC50 worked out at 8.2 nM.
On the same count and under the same terms, to `COc1nc(C(=O)O)nc(C)c1Cc1ccccc1C(C)C` [Example 73] belongs 35.2 nM; to `Cc1nc(C(=O)O)nc(Cc2ccccc2Cl)c1Cc1ccccc1Cl` [Example 88, 4,5-Bis(2-chlorobenzyl)-6-methylpyrimidine-2-carboxylic acid], 7.1 nM; to `Cc1nc(C(=O)O)nc(OCc2ccncc2)c1Cc1ccccc1Cl` [Example 94], 2.2 nM.
The same measure, in the same setting: to `CCc1nc(C(=O)O)nc(OC)c1Cc1ccc(F)cc1Cl` [Example 40] belongs 8.1 nM.
The same measure, in the same setting: to `COc1nc(C(=O)O)nc(C(C)C)c1Cc1ccc(C(F)(F)F)cc1Cl` [Example 72] belongs 2.6 nM.
In turn, `CNc1nc(C(=O)O)nc(C)c1Sc1cccc(Cl)c1Cl` [Example 28] showed an EC50 in test [2] (setting [3]) of 2.8 nM.
In the case of `Cc1nc(C(=O)O)nc(NCCCOC(C)C)c1Cc1ccc(Cl)cc1Cl` [Example 5, 5-(2,4-Dichlorobenzyl)-4-((3-isopropoxypropyl)amino)-6-methylpyrimidine-2-carboxylic acid], the EC50 in test [2] (setting [3]) turned out to be 30.3 nM.
Still for that read-out and setting: to `Cc1nc(C(=O)O)nc(OCc2ccccc2F)c1Cc1ccccc1Cl` [Example 99] belongs 5.1 nM; to `Cc1nc(C(=O)O)nc(SC(C)C)c1Cc1ccccc1Cl` [Example 84], 10.4 nM; to `CNc1nc(-c2nnn[nH]2)nc(C)c1Cc1ccc(Cl)cc1Cl` [Example 105, 5-(2,4-Dichlorobenzyl)-N,6-dimethyl-2-(1H-tetrazol-5-yl)pyrimidin-4-amine], 2.1 nM.
Same read-out and setting: to `Cc1nc(C(=O)O)nc(SC(C)C)c1Sc1ccccc1Cl` [Example 83, 5-((2-Chlorophenyl)thio)-4-(isopropylthio)-6-methylpyrimidine-2-carboxylic acid hydrochloride] belongs 50.7 nM; to `CCc1nc(C(=O)O)nc(NC)c1Cc1ccccc1Cl` [Example 11, 5-(2-Chlorobenzyl)-4-ethyl-6-(methylamino)pyrimidine-2-carboxylic acid], 11.1 nM.
In the case of `CCc1nc(C(=O)O)nc(OC)c1Sc1ccc(Cl)cc1Cl` [Example 37], in test [2] (setting [3]), the concentration for a half-maximal effect (EC50) is 30.3 nM.
The molecule `Cc1nc(C(=O)O)nc(CCc2ccncc2)c1Cc1ccccc1Cl` [Example 101, 5-(2-Chlorobenzyl)-4-methyl-6-(2-(pyridin-4-yl)ethyl)pyrimidine-2-carboxylic acid] registered an EC50 in test [2] (setting [3]) of 8.9 nM. Compared with the last molecule, the EC50 is about 3.4-fold lower.
In test [2] (setting [3]), `CCNc1nc(C(=O)O)nc(C)c1Oc1ccc(Cl)cc1Cl` [Example 31] came in with an EC50 of 34.9 nM.
`CSc1nc(C(=O)O)nc(C)c1Nc1ccccc1Cl` [Example 85, 5-((2-Chlorophenyl)amino)-4-methyl-6-(methylthio)pyrimidine-2-carboxylic acid hydrochloride] came in with an EC50 in test [2] (setting [3]) of 30.2 nM.
The same measure, in the same setting: to `CCc1nc(C(=O)O)nc(SC)c1Cc1ccccc1Cl` [Example 78] belongs 4.6 nM.
The same measure, in the same setting: to `COc1nc(C(=O)O)nc(C)c1Cc1ccc(Cl)cc1Cl` [Example 32, 5-(2,4-Dichlorobenzyl)-4-methoxy-6-methylpyrimidine-2-carboxylic acid] belongs 17.1 nM; to `Cc1nc(C(=O)O)nc(O[C@H]2C[C@@H](C#N)C2)c1Cc1ccccc1Cl` [Example 92], 5.1 nM; to `Cc1nc(C(=O)O)nc(OCc2ccc(F)cc2)c1Cc1ccccc1Cl` [Example 97], 5.7 nM.
For `CCOc1nc(C(=O)O)nc(C)c1Cc1cccc(Cl)c1Cl` [Example 50], the EC50 in test [2] (setting [3]) turned out to be 10.2 nM.
In the case of `Cc1nc(C(=O)O)nc(OCc2cccc(F)c2)c1Cc1ccccc1Cl` [Example 98], the EC50 in test [2] (setting [3]) was 13.5 nM.
`Cc1nc(C(=O)O)nc(SCCO)c1Sc1ccc(Cl)cc1Cl` [Example 82] showed an EC50 in test [2] (setting [3]) of 30.8 nM.
On the same count and under the same terms, to `CCOc1nc(C(=O)O)nc(C)c1Cc1ccc(F)cc1Cl` [Example 49] belongs 24.8 nM; to `Cc1nc(C(=O)O)nc(N[C@@H](C)C(N)=O)c1Cc1ccc(Cl)cc1Cl` [Example 4, (S)-4-((1-Amino-1-oxopropan-2-yl)amino)-5-(2,4-dichlorobenzyl)-6-methylpyrimidine-2-carboxylic acid hydrochloride], 19.6 nM; to `CCCc1nc(C(=O)O)nc(OC)c1Cc1ccc(Cl)cc1F` [Example 47], 8.6 nM.
`CCCc1nc(C(=O)O)nc(OC)c1Cc1ccc(F)cc1Cl` [Example 46] came in with an EC50 in test [2] (setting [3]) of 15.9 nM.
Molecule `CNc1nc(C(=O)O)nc(C)c1Sc1ccc(F)cc1Cl` [Example 29] gave an EC50 in test [2] (setting [3]) of 6.9 nM.
